In patent US7425640B2, “Substituted 5-carboxyamide pyrazoles and [1,2,4]triazoles as antiviral agents” (priority 2004, dated 2008):

biological target: HCV RNA-dependent RNA polymerase NS5B (Δ21) (Hepatitis C virus genotype 1b, UniProt P26663); test: Assay for HCV RNA-dependent RNA polymerase activity (SPA, [3H]-GTP incorporation); format: biochemical; settings: read-out: Δ21 Activity (IC50 μM); 50 nM NS5B (Δ21), class symbols
How it was run: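 NS5B (Δ21), 50 nM, was incubated 3 h at room temperature with biotinylated oligoG12/polyC template, 5 μM GTP plus [3H]-GTP, in HEPES pH 7.3 with MgCl2 and NaCl. [3H]-GTP incorporation was read by streptavidin SPA. IC50 came from single experiments across 11 two-fold dilutions (0.05–50 μM).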

Sequence of HCV RNA-dependent RNA polymerase NS5B (Δ21) (P26663 2420-2989, stated change not applied): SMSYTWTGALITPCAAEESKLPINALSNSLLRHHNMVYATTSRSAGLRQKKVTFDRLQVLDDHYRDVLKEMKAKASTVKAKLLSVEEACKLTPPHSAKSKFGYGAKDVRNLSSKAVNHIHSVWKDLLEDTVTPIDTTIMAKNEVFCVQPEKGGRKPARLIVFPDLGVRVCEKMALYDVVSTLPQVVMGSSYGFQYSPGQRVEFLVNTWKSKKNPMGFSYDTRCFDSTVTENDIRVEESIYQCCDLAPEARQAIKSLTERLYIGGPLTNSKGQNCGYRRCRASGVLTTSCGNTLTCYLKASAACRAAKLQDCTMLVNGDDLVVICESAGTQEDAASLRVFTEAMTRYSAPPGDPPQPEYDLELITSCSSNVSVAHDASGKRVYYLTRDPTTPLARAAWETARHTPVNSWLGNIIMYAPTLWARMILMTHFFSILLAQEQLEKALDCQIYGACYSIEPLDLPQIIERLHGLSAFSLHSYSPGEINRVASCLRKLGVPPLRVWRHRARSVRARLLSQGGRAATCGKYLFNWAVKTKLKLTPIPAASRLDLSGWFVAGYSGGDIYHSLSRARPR

Row | Compound | IC50 [µM]
1 | O=C(Cn1nc(C(=O)NOCc2cccc3ccccc23)cc1C(=O)N[C@H]1CCCC[C@@H]1OCc1ccccc1)N[C@H]1CCCC[C@@H]1OCc1ccccc1 [Compound 68] | 0.1 to 1
2 | O=C(Cn1nc(C(=O)NOCc2ccccc2)cc1C(=O)N[C@H]1CCCC[C@@H]1OCc1ccccc1)N[C@H]1CCCC[C@@H]1OCc1ccccc1 [Compound 53] | 0.1 to 1
3 | CC(=O)c1cc(C(=O)N[C@H]2CCCC[C@@H]2OCc2ccccc2)n(CC(=O)N[C@H]2CCCC[C@@H]2OCc2ccccc2)n1 [Compound 126] | 0.1 to 1
4 | O=C(Cn1nc(C(=O)NCc2ccncc2)cc1C(=O)N[C@H]1CCCC[C@@H]1OCc1ccccc1)N[C@H]1CCCC[C@@H]1OCc1ccccc1 [Compound 138] | 0.1 to 1
5 | O=C(Cn1nc(C(=O)NCc2ccc(C(F)(F)F)cc2)cc1C(=O)N[C@H]1CCCC[C@@H]1OCc1ccccc1)N[C@H]1CCCC[C@@H]1OCc1ccccc1 [Compound 127] | 0.1 to 1
6 | CN(C(=O)Cn1nc(C(=O)O)cc1C(=O)N(C)[C@H]1CCCC[C@@H]1OCc1ccccc1)[C@H]1CCCC[C@@H]1OCc1ccccc1 [Compound 158] | 0.1 to 1
7 | O=C(Cn1nc(C(=O)N(c2ccccc2)c2ccccc2)cc1C(=O)N[C@H]1CCCC[C@@H]1OCc1ccccc1)N[C@H]1CCCC[C@@H]1OCc1ccccc1 [Compound 159] | 0.1 to 1
8 | O=C(Cn1nc(C(=O)O)nc1C(=O)Nc1ccccc1OCc1ccccc1)N[C@H]1CCCC[C@@H]1OCc1ccccc1 [Compound 62] | 0.1 to 1
9 | CON=Cc1cc(C(=O)N[C@H]2CCCC[C@@H]2OCc2ccccc2)n(CC(=O)N[C@H]2CCCC[C@@H]2OCc2ccccc2)n1 [Compound 162] | 0.1 to 1
10 | CON(C)C(=O)c1cc(C(=O)N[C@H]2CCCC[C@@H]2OCc2ccccc2)n(CC(=O)N[C@H]2CCCC[C@@H]2OCc2ccccc2)n1 [Compound 109] | 0.1 to 1
11 | CC(C)(C)ONC(=O)c1cc(C(=O)N[C@H]2CCCC[C@@H]2OCc2ccccc2)n(CC(=O)N[C@H]2CCCC[C@@H]2OCc2ccccc2)n1 [Compound 116] | 0.1 to 1

same assay, conditions: Δ21 Activity (IC50 μM), 50 nM NS5B (Δ21), class symbols

Row | Compound | IC50 [µM]
12 | Cc1ccc(OCC2CCCC2)c(NC(=O)Cn2nc(C(=O)O)cc2C(=O)N[C@H]2CCCC[C@@H]2OCc2ccccc2)c1 [Compound 34] | 0.05 to 0.1
13 | CCOC(=O)CNC(=O)Nc1cc(C(=O)N[C@H]2CCCC[C@@H]2OCc2ccccc2)n(CC(=O)N[C@H]2CCCC[C@@H]2OCc2ccccc2)n1 [Compound 183] | > 1
14 | O=C(Cn1nc(C(=O)O)cc1C(=O)N[C@H]1CCCC[C@@H]1OCc1ccccc1)NC1CCCC[C@@H]1N1CCOCC1 (some centres unmarked) [Compound 211] | > 1
15 | Cc1ccc(OCC2CCCC2)c(NC(=O)c2cc(C(=O)O)nn2CC(=O)N[C@H]2CCCC[C@@H]2OCc2ccccc2)c1 [Compound 2] | < 0.05
16 | CCCCC(CC)CNC(=O)c1cc(C(=O)N[C@H]2CCCC[C@@H]2OCc2ccccc2)n(CC(=O)N[C@H]2CCCC[C@@H]2OCc2ccccc2)n1 (some centres unmarked) [Compound 194] | > 1
17 | COC(=O)CCCCCNC(=O)CCCCCNC(=O)c1cc(C(=O)N[C@H]2CCCC[C@@H]2OCc2ccccc2)n(CC(=O)N[C@H]2CCCC[C@@H]2OCc2ccccc2)n1 [Compound 184] | > 1
18 | CCOC(=O)c1cc(C(=O)N[C@H]2CCCC[C@@H]2OCc2ccccc2)n(CC(=O)Nc2ncccc2Oc2ccccc2)n1 [Compound 200] | > 1
19 | O=C(Cn1nc(C(=O)NCCO)cc1C(=O)N[C@H]1CCCC[C@@H]1OCc1ccccc1)N[C@H]1CCCC[C@@H]1OCc1ccccc1 [Compound 191] | > 1

same assay, conditions: Δ21 Activity (IC50 μM), 50 nM NS5B (Δ21), numeric values

Row | Compound | IC50 [µM]
20 | Cc1ccc(OCC2CCCCC2)c(NC(=O)c2cc(C(=O)O)nn2CC(=O)N[C@H]2CCCC[C@@H]2OCc2ccccc2)c1 [drawing 244] | 0.033
21 | O=C(Cn1nc(C(=O)O)cc1C(=O)Nc1ccc(F)cc1OCC1CCCCC1)N[C@H]1CCCC[C@@H]1OCc1ccccc1 [drawing 249] | 0.035
22 | Cc1ccc(OCC2CCC2)c(NC(=O)c2cc(C(=O)O)nn2CC(=O)N[C@H]2CCCC[C@@H]2OCc2ccccc2)c1 [drawing 248] | 0.055
23 | O=C(Cn1nc(C(=O)O)cc1C(=O)Nc1cc(C(F)(F)F)ccc1OCc1ccccc1)N[C@H]1CCCC[C@@H]1OCc1ccccc1 [drawing 253] | 0.041
